Data taken from PubChem BioAssay (NCI).
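Exposure lasted 48 hours, with cells grown in 96-well plates and compounds tested at five concentrations. Abbreviation: GI50, concentration required for 50% inhibition of growth. TGI is the concentration that stops growth completely.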 *1 amine or outer side, *2 acyl side, *3 side chain or, on linkers, in order; H or OH if unused. Where a SMILES comes first, the peptide text is derived from it. Bridges are numbered along the chain shown (N, C = ends). Roman numbers before positions name the chains, in order. [ ]: non-standard residue; d: D form. Actinocin(9to1) = Cc1c2oc3c(C)ccc(C(=O)[*:1])c3nc-2c(C(=O)[*:2])c(N)c1=O; NMeV = CN[CH](C(=O)O)C(C)C; Sar = CNCC(=O)O

Experiments:
Test in all cases: growth of human tumour cells (NCI), 48 h
SK-MEL-28 melanoma = tested on: SK-MEL-28 melanoma
NCI-H226 lung = tested on: NCI-H226 lung
TK-10 renal = tested on: TK-10 renal
NCI-H522 lung = tested on: NCI-H522 lung
HS 578T breast = tested on: HS 578T breast
SF-539 CNS = tested on: SF-539 CNS
MDA-N = tested on: MDA-N
SK-MEL-5 melanoma = tested on: SK-MEL-5 melanoma
IGROV1 ovarian = tested on: IGROV1 ovarian
SK-MEL-2 melanoma = tested on: SK-MEL-2 melanoma
OVCAR-5 ovarian = tested on: OVCAR-5 ovarian

| Structure (SMILES) | TGI (SK-MEL-28 melanoma) | TGI (NCI-H226 lung) | TGI (TK-10 renal) | TGI (NCI-H522 lung) | TGI (HS 578T breast) | TGI (SF-539 CNS) | TGI (MDA-N) | TGI (SK-MEL-5 melanoma) | TGI (IGROV1 ovarian) | TGI (SK-MEL-2 melanoma) | TGI (OVCAR-5 ovarian) | GI50 (OVCAR-5 ovarian) |
| --- | --- | --- | --- | --- | --- | --- | --- | --- | --- | --- | --- | --- |
| Cc1nn(C(=O)Cc2ccccc2)c2c1C(c1ccccc1)SC(N)=N2 (stereo unspecified) | > 100 µM | > 100 µM | > 100 µM | > 100 µM | > 100 µM | > 100 µM | > 100 µM | > 100 µM | > 100 µM |  |  |  |
| O=C1c2cc3c(cc2CC12Cc1ccc4c(c1C2=O)CCC4)CCCC3 (stereo unspecified) | > 100 µM |  | > 100 µM | > 100 µM | > 100 µM | > 100 µM | > 100 µM | > 100 µM | > 100 µM | > 100 µM | > 100 µM |  |
| Cc1ccc(S(=O)(=O)N2C3C=CC(C3)[C@@H]2C(Cl)(Cl)Cl)cc1 (stereo partly specified) | 57.2 µM | 60.9 µM | > 100 µM | 41.3 µM | 41.3 µM | 30 µM | 86.9 µM | 38.3 µM | > 71 µM | 35.5 µM |  |  |
| COc1ccc2oc3c(C)cc4c(OC)nnc(OC)c4c3c2c1 | > 100 µM | > 100 µM | 91.9 µM | > 100 µM | > 100 µM | > 100 µM | > 100 µM | > 100 µM |  | > 100 µM | > 100 µM |  |
| COc1cc(S(=O)(=O)Nc2ccc(-c3csc(N4C(=O)CSC4c4cccc(Oc5ccccc5)c4)n3)cc2)ccc1Cl (stereo unspecified) | 87.7 µM | > 100 µM |  | > 100 µM | > 100 µM | > 100 µM | 75.8 µM | > 100 µM | > 100 µM |  | > 100 µM |  |
| Cc1ccc2nc(-c3ccccc3)cc(=O)n2c1 | > 100 µM | > 100 µM | > 100 µM | > 100 µM | > 100 µM | > 100 µM | > 100 µM | > 100 µM | > 100 µM |  | > 100 µM |  |
| Cc1cc(OC(=O)Nc2cccc3ccccc23)c(C(C)C)cc1C(=S)Nc1ccccc1 | 35.3 µM |  |  | 29.1 µM | 55.2 µM | 36.9 µM | 33.3 µM | 27.9 µM | 30.4 µM | 28.3 µM | 46 µM |  |
| C=CCNC(=S)N/C=C(\C#N)C(N)=O | > 100 µM | > 100 µM |  | > 100 µM | > 100 µM | > 100 µM | > 100 µM | > 100 µM | > 100 µM | > 100 µM | > 100 µM |  |
| O=C1/C(=C/c2ccco2)NC(=S)N1CN1CCCCC1 | > 100 µM | > 100 µM | > 100 µM | > 100 µM | > 100 µM |  | > 100 µM | > 100 µM | > 100 µM | > 100 µM | > 100 µM |  |
| Cc1c2oc3c(C)ccc(C(=O)NC4C(=O)NC(C(C)C)C(=O)N5CCCC5C(=O)N(C)CC(=O)N(C)C(C(C)C)C(=O)OC4C)c3nc-2c(C(=O)NC2C(=O)NC(C(C)C)C(=O)N3CCCC3C(=O)N(C)CC(=O)N(C)C(C(C)C)C(=O)OC2C)c(N)c1=O (stereo unspecified) (I: TVP[Sar][NMeV] / II: TVP[Sar][NMeV]; ester I:1-I:C, II:1-II:C; linker I:N-II:N via Actinocin(9to1); configuration not given here) | 0.0125 µM |  | > 0.246 µM | 0.00137 µM | 0.00439 µM | 0.00299 µM | 0.0094 µM | 0.0153 µM | > 0.396 µM | 0.00295 µM | 0.00663 µM | 0.00145 µM |
| COC(=O)[C@]1(C)CCC[C@@]2(C)C1CC[C@@]13C=C(C(C)C)[C@@H](CC1=O)CC23 (stereo partly specified) | > 100 µM | 39 µM | > 100 µM | 38.5 µM | 43.9 µM | 37.5 µM | > 100 µM | 33 µM | > 100 µM |  |  |  |
| Nc1nc(Cl)cc(OCC2(CO)CC=CC2)n1 | > 100 µM | > 100 µM | > 100 µM | > 100 µM | > 100 µM | > 100 µM | > 100 µM | > 100 µM | > 100 µM |  | > 100 µM |  |
| C[C@]12[C@@H]3CC[C@H]1[C@@H](O)C(=O)N2CC3 | > 100 µM |  | > 100 µM | > 100 µM | > 100 µM |  | > 100 µM | > 100 µM | > 100 µM | > 100 µM | > 100 µM |  |
| COC(=O)c1cccc(C)c1C1CN=NC12Cc1cc(C)cc(C)c1C2=O (stereo unspecified) | > 100 µM | > 100 µM | > 100 µM | > 100 µM | > 100 µM | > 100 µM | > 100 µM | 77 µM | > 100 µM |  | > 100 µM |  |
| COC(=O)c1ccc(Cc2cc(Cc3ccc(C(=O)OC)cc3)cc(Cc3ccc(C(=O)OC)cc3)c2)cc1 | > 25 µM | > 25 µM | > 25 µM | > 25 µM | > 25 µM | > 25 µM | > 25 µM |  | > 25 µM | > 25 µM | > 25 µM |  |
